According to patent US10149836B2, “Isoxazole treatments for frontotemporal dementia” (The Board of Regents of the University of Texas System, priority 2014, dated 2018):

How the values were obtained:
progranulin promoter = experiment: Luciferase reporter assay in Neuro2A #48 cells (human GRN start codon fused to firefly luciferase); assay type: cell-based, mouse; conditions: for Luciferase activity over DMSO control: Neuro2A #48 cells, 24 hrs after compound addition, increasing concentrations
Protocol: Plasmids and Cell Lines. The firefly luciferase coding sequence was fused by bacterial recombination to the authentic human GRN start codon in exon 2 (NM_002087.2) on a bacterial artificial chromosome (BACPAC RP11-812N09), and stably transfected Neuro-2a cells were derived.
Library Screening and Luciferase Reporter Assays. Neuro-2a cells were assayed in 384-well plates (3000 cells/well). 6 hrs after cell plating, 1200 Prestwick Chemical Library® compounds in DMSO, including internal controls, were dispensed using a BioMek FX system to final concentrations of 2.5 μM compound and 1% DMSO (unless indicated otherwise). Sodium butyrate (9 mM) was used as a positive control on each plate for initial screening. Luciferase activity was measured 24 hr after compound addition using Bright-Glo™ reagent (20 μl/well; Promega). Each well was normalized to the average luminescence from DMSO-treated wells on the same plate.
Technical details of HTS screen. Cell type used: Neuro-2a #48 cell line was cultured in DMEM (High glucose)/10%FBS/Pen-Strep/Zeocin (200 μg/mL) and plated in same media without Zeocin. All media is sterile filtered before use. The firefly luciferase coding sequence was fused by bacterial recombination to the authentic human GRN start codon in exon 2 (NM_002087.2) on a bacterial artificial chromosome (BACPAC RP11-812N09), and stably transfected Neuro-2a cells were derived (Cenik et al., 2011). Cells are put into single cell suspension and strained with 70 μm cell strainers before counting. The concentration of cells is adjusted to 150,000 cells/ml.
384 well plates were used for the assay: 50 μL of the cell suspension are added to each well for a final cell number per well of 7,500. Plates are spun down after plating and incubated at 37° C. under 5% CO2. Compound addition takes place 4 hours after plating. Test compounds are in columns 3-22. The vehicle control wells are in columns 2 and 23. The positive control, SAHA (3 μM), is plated in column 1 An untreated control (no DMSO) is in column 24. The plates are assayed for reporter activity 24 hrs after compound addition. All media is spun out of the plates and 20 μL of bright glo is added to each well and placed on shaker for 3-5 minutes. After shaking, plates are read and check from increases in activation over DMSO. Vehicle (DMSO) was used for baseline because it causes a slight activation of luciferase construct. […] All compounds were added from DMSO stocks and added at 0.5 μL per well (1% DMSO). All plates are read on an EnVision multilabel plate reader in luminescence mode. The data is then parsed into GeneData Screener v11 and quality controlled visually. Z′ values are calculated using the DMSO and SAHA controls. Plates that have a Z′ value less than 0.45 are further scrutinized. If the latter show systematic effects or if known errors occurred in these plates, they are repeated in a separate experiment. Data are then normalized and analyzed as previously described (Kim et al., 2013).

progranulin (PGRN) = experiment: Progranulin (PGRN) protein expression in Neuro2a whole cell lysates by immunoblotting; assay type: cell-based, mouse; conditions: Neuro2a cells, 48 hours; for PGRN levels compared to DMSO: highest concentrations, N=4; for progranulin protein levels by immunoblotting: increasing doses, whole cell lysates
Protocol: FIG. 6. Protein analysis using immuoblotting. Neuro2a cells were treated with in increasing doses for 48 hours and whole cell lysates were analyzed for progranulin (PGRN) protein expression using immunobloting. N=4.
FIG. 7. Graphical analysis of protein quantification using immunoblotting. Whole cell lysates were analyzed for progranulin (PGRN) protein expression using immunoblotting and were graphically plotted to show changes in band intensity. PGRN levels doubled compared to DMSO at the highest concentrations. N=4.
Immunoblotting and Quantification. Cells were lysed in radioimmune precipitation assay buffer (50 mM Tris-HCl (pH 7.4), 150 mM NaCl, 1 mM EDTA, 1% Triton X-100, 1% sodium deoxycholate, 0.1% SDS, and Roche Complete protease inhibitor mixture) and cleared by centrifugation at 20,000×g for 10 min. 0.5-ml cell culture supernatants containing 1% FBS were concentrated by centrifugation at 14,000×g for 50 min in Millipore Amicon Ultra devices (3-kDa cutoff). 15-20 μg of total protein was separated by SDS-PAGE and transferred to nitrocellulose membranes. Membranes were blocked in 5% milk for 1 hr and probed overnight with primary antibodies at 4° C. Mouse progranulin was detected with linker-3 anti-progranulin antibody at 1:5000 dilution, β-actin with anti-β-actin antibody (Sigma A2228) at 1:5000 dilution, human progranulin with anti-PC cell-derived growth factor antibody (Invitrogen) at 1:1000 dilution, and GAPDH with anti-GAPDH antibody (Sigma) at 1:10,000 dilution. Bound IgG was detected by ECL. For quantitative immunoblotting, secondary antibodies labeled with IRDye® infrared dyes and an Odyssey® infrared imager (LI-COR Biosciences) were used following the manufacturer's instructions.

progranulin [1] = experiment: RT PCR of progranulin mRNA and pre-mRNA in Neuro2A cells; assay type: cell-based, mouse; conditions: 48 hours, increasing concentrations
Protocol: FIG. 2. Neuro2A cells were treated for 48 hours with increasing concentrations of Isoxazole. RT PCR was conducted to measure increases in progranulin mRNA and pre-mRNA (hnRNA before splicing).
RNA Extraction and Quantitative PCR. Cells in 6-well plates were lysed in 500 μl of TRIzol® reagent/well. cDNA was reverse-transcribed with MultiScribe™ (Applied Biosystems). For some experiments, the Quick-RNA MiniPrep system (Zymo Research, Irvine, Calif.) was used to isolate total RNA. Primer sequences were as follows:
Quantitative PCRs (qPCRs; 10 μl) contained 20 ng of cDNA, 150 nM primer, and 5 μl of Fast SYBR Green PCR Master Mix (Applied Biosystems) and were performed in triplicate on an Applied Biosystems PRISM 7500 Fast sequence detection system. Relative mRNA levels were calculated using U36B or cyclophilin Q primers as internal controls.

Progranulin [2] = experiment: Progranulin protein expression in primary rat neurons (immunoblot, densitometric quantitation); assay type: cell-based; conditions: 24 hours, two concentrations
Protocol: FIGS. 1A-B. Neuro2A #48 cells show a marked increase in Progranulin levels due to Isoxazole treatment after 24 hours. (FIG. 1A) Cells were treated with Isoxazole in increasing concentrations ranging from 10 nM to 25 μM. […] (FIG. 1B) Primary rat neurons were treated for 24 hours with DMSO and two concentrations of Isoxazole to visualize the increase in Progranulin protein expression in the relevant in vivo cell type. […] Lower band: actin control. Bands at ˜75 kDa: Progranulin monomer. HMW bands: Progranulin multimers. Densitometric quantitation is shown on the right.
Immunoblotting and Quantification. […] Mouse progranulin was detected with linker-3 anti-progranulin antibody at 1:5000 dilution, β-actin with anti-β-actin antibody (Sigma A2228) at 1:5000 dilution, human progranulin with anti-PC cell-derived growth factor antibody (Invitrogen) at 1:1000 dilution, and GAPDH with anti-GAPDH antibody (Sigma) at 1:10,000 dilution. Bound IgG was detected by ECL. For quantitative immunoblotting, secondary antibodies labeled with IRDye® infrared dyes and an Odyssey® infrared imager (LI-COR Biosciences) were used following the manufacturer's instructions.

Progranulin MEF cells = experiment: Lysosome rescue (lysotracker) in Progranulin MEF cells; assay type: cell-based, mouse; conditions: one concentration, one trial
Protocol: FIGS. 8A-8F. Dose Tested for Lysosome Rescue. Progranulin MEF cells were treated with 1 concentration each of C15 and C19 and levels of lysotracker were analyzed to look for reduction of lysosome levels back to wild type levels. The stained area per cell is measured for compound C15 (FIG. 8A) and C19 (FIG. 8B), area intensity for compound C15 (FIG. 8C) and C19 (FIG. 8D), and total number of lysosomes for compound C15 (FIG. 8E) and C19 (FIG. 8F).
Progranulin MEF cells were treated with one aliquot each of C15 and C19 and levels of lysotracker were analyzed to look for reduction of lysosome levels back to wild type levels.

SMILES	Luciferase activity over DMSO control (progranulin promoter)	PGRN levels compared to DMSO (progranulin (PGRN))	progranulin protein levels by immunoblotting (progranulin (PGRN))	further results
CCCCCCCCCCCCC/C=C/[C@@H](O)[C@@H](N)COP(=O)([O-])OCC[N+](C)(C)C [sphingosinephosphorylcholine, reference compound]	increasing levels of luciferase activity over DMSO control	–	–	–
COc1ccccc1C(=O)NNC1C(=O)Nc2ccccc21 (stereo not shown) [Compound C15]	dose dependent increase in luciferase activity	doubled	increased progranulin protein levels	–
c1cnoc1 [Isoxazole]	significant increase over control	–	–	progranulin mRNA (progranulin [1]): significant increases in a dose dependent manner; progranulin pre-mRNA (hnRNA before splicing) (progranulin [1]): significant increases in a dose dependent manner; Progranulin protein levels vs DMSO control (Progranulin [2]): significant increase over the DMSO control
CC(C)(C)c1cc2c(c(C(C)(C)C)c1)OC(c1cccc([N+](=O)[O-])c1O)N2 (stereo not shown) [Compound C19]	only a small change	doubled	increased progranulin protein levels	lysosome levels (lysotracker) (Progranulin MEF cells): marked decrease in lysosome levels
O=C(CCCCCCC(=O)Nc1ccccc1)NO [SAHA, reference compound]	–	–	–	Activation of luciferase reporter relative to base line (DMSO) (progranulin promoter; Neuro-2a #48 cells, SAHA 3 μM positive control, 24 hrs): 4-5 times base line
